Test results published in US8148386B2, “Agent for the prevention and treatment of prostatic hyperplasia comprising pyrazolopyrimidinone compound” (priority 2006, dated 2012).
Where two headings read alike, the source gives them in different places.

Key:
[1] = cited from earlier work
[2] = Interrupt rate of administration due to side effects of PDE-5 inhibitors after clinical trials on impotence
[3] = test system: BPH rat models; test: Repeated administration: intraurethral pressure in BPH rat models; format: in vivo, Wistar rats; settings: oral 1, 5 and 20 mg/kg for 8 weeks; 5, 10 and 20 Hz electrostimulation of hypogastric nerves; FIGS. 1 to 4
Description: In the present experiment, thirty-six male white Wistar rats of 300 to 350 g were randomly divided into six control groups of six rats. The first group (1) was left untreated as a normal control group and the other groups were those whose testicles were […]. From a couple of days after the operations, each rat in the third to sixth groups was given a daily hypodermic injection of 1 mg of testosterone and 0.01 mg of 17 beta-estradiol for 8 weeks. The second group (2) was those whose testicles were […] only; the third group (3) was treated with a solvent; the fourth group (4) was treated with 1 mg/kg of the pyrazolopyrimidinone compound of formula 1; the fifth group (5) was treated with 5 mg/kg of the pyrazolopyrimidinone compound of formula 1; and the sixth group (6) was treated with 20 mg/kg of the pyrazolopyrimidinone compound of formula 1, the fourth to sixth groups being orally administrated for 8 weeks. After 8 weeks, all rats were anesthetized by an intraperitoneal injection with 50 mg/kg of pentobarbital, and intubated with polyethylene needles. […] In the measurement, 5, 10 and 20 Hz of electrostimulations were applied to hypogastric nerves using a stainless steel anode electrode, and the measured results were shown in FIGS. 1 to 4.

[4] = test system: BPH rat models; test: Single administration: intraurethral pressure in BPH rat models; format: in vivo, Wistar rats
Description: In the present experiment, thirty male white […] rats of 300 to 350 g were randomly divided into five control groups of six rats. The first group (1') was left untreated as a normal group and the other groups were those whose testicles were resected. From a couple of days after the operations, each rat in the third to fifth groups was given a daily hypodermic injection of 1 mg of testosterone and 0.01 mg of 17 beta-estradiol for 8 weeks. After 8 weeks, all rats were anesthetized by an intraperitoneal injection with 50 mg/kg of pentobarbital, and intubated with polyethylene needles. The second group (2') was those whose testicles were resected only; the third group (3') was treated with a solvent; the fourth group (4') was treated with 0.3 mg/kg of the pyrazolopyrimidinone compound of formula 1; and the fifth group (5') was treated with 1 mg/kg of the pyrazolopyrimidinone compound of formula 1, the fourth and fifth groups being administrated via intravenous injections. […] In the measurement, 5, 10 and 20 Hz of electrostimulations were applied to hypogastric nerves using a stainless steel anode electrode, and the measured results were shown in FIGS. 5 to 8.

[5] = Pharmacokinetic experiment in the human body (BPH patients); format: in vivo
Description: The test was carried out in a double-blind manner and the participants were administrated with the test drugs with 240 ml of water at 8:00 to 9:00 am of the test day. After administration, all participants were fasted for four hours. After the fast, they were served a lunch of standard diet and provided a dinner of standard diet nine hours after the lunch. Blood collections were carried out before administrating the test drugs and 0.5, 1, 1.5, 2, 2.5, 3, 4, 5, 6, 8, 12 and 24 hours after the administration on the test day. From the bloods collected, blood plasmas were separated and analyzed using high performance liquid chromatography (HPLC). […] of 0.1 M sodium carbonate and 1.0 ml of ethylether were added to each 0.5 ml of blood plasma and mixed well for one minute. Then, the resultant solutions were centrifuged at […] for three minutes. Subsequently, the supernatants were collected, from which organic solvents were volatilized using a Speed-Vac, to which […] of mobile phases were added, stirred and injected into the high performance liquid chromatography (HPLC).

[6] = Phase 1 clinical trial: safety, tolerability and pharmacokinetics in healthy adults; format: in vivo, human
[7] = biological target: PDE-5 (Homo sapiens, UniProt O76074); test: Inhibition of PDE-5 activity; format: biochemical
[8] = biological target: PDE-11 (Homo sapiens, UniProt Q9HCR9)
PDE-11, sequence (Q9HCR9 whole entry): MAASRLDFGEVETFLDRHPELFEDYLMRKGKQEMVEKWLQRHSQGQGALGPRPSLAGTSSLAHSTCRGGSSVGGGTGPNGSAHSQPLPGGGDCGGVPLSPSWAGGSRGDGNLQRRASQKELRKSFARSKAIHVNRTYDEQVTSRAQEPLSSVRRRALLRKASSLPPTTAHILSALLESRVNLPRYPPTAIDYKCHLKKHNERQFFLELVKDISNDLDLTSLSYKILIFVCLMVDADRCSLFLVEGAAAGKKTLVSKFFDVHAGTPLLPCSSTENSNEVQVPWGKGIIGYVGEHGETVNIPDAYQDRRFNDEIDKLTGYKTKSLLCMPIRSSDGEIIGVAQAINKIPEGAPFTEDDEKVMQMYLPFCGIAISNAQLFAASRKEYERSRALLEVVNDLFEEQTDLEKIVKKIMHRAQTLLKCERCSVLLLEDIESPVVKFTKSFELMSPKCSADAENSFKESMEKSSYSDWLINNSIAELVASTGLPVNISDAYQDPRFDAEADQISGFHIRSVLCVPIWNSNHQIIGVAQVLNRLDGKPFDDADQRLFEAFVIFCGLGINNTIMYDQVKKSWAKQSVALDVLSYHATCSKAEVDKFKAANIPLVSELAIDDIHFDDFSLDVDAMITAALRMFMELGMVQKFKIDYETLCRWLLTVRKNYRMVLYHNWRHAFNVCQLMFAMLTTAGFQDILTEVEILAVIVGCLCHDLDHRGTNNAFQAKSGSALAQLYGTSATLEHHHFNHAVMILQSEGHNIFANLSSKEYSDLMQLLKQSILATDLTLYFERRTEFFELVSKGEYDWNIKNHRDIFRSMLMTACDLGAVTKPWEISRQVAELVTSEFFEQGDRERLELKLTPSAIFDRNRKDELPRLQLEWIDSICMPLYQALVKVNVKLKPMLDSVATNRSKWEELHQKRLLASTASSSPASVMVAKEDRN

[9] = Xenobiotica 2004 34:973-982; cited from earlier work
[10] = Tissue distribution in urogenital organs; settings: male, Sprague-Dawley, rat, 30 mg/kg
Description: Male white Sprague-Dawley (SD) rats were randomly assigned by four to five rats at different time points. […] At different time points of 30 minutes, 2 hours and 6 hours after administration, bloods were collected through abdominal aortas and urogenital organs were extracted. Phosphate buffer of pH 7.4 was added to the extracted organs to be homogenized. […] Analyses were performed using a Hichrom HIRPB column (150×4.6 mm, particle size: 5 μm) at fixed wavelength of 292 nm with a mobile phase mixed with 20 nM of KH2PO4 and acetonitrile in a volume ratio of 70:30. The mobile phase flow rate was 1 ml/min. and the amount of sample introduced was 100 ml.

For `CN1CC(=O)N2[C@H](c3ccc4c(c3)OCO4)c3[nH]c4ccccc4c3C[C@@H]2C1=O` [Cialis], the IPSS change ([1]; 5 mg once a day for 6 weeks) is given as 2.8 points, the IPSS change ([1]; dose increased to 20 mg, additional 6 weeks) is given as 3.8 points and the “interrupt rate of administration due to the side effects” value ([1]; phase 2 clinical trial) is given as 3.6%. For the same compound, the “Interrupt rate (%) of administration due to side effects” value (from here on “Interrupt rate (%)”) ([2]; 5 mg) was 0.7%, the “Interrupt rate (%)” value ([2]; 10 mg) was 1.6% and the “Interrupt rate (%)” value ([2]; 20 mg) was 3.1%.

With `CCCOc1ccc(S(=O)(=O)NCCC2CCCN2C)cc1-c1nc2c(CCC)nn(C)c2c(=O)[nH]1` (stereo not shown) [Compound of formula 1, 5-[2-propyloxy-5-(1-methyl-2-pyrrolidinylethylamidosulfonyl)phenyl]-1-methyl-propyl-1,6-dihydro-7H-pyrazolo(4,3-d)pyrimidin-7-one] the “intraurethral pressures (IUP)” value [3] was “decreased dose-dependently and significantly”, the “intraurethral pressure, significance of decrease” value ([4]; 0.3 mg/kg intravenous, 5 and 10 Hz) was “did not show significant decreases” and the “intraurethral pressure, significance of change” value ([4]; 0.3 mg/kg intravenous, 20 Hz) was “significant increase”. For the same compound, the “prevention of increases in the intraurethral pressure in comparison with sildenafil” value ([4]; single administration, sildenafil of same volume) was “excellent effects”, the “increases in the intraurethral pressure” value ([4]; single intravenous injection 0.3 and 1 mg/kg, FIGS. 5 to 8) was “prevented dose-dependently” and the half-life ([5]; human, in vivo, 100 mg) was 12.1 ± 3.2 h. For the same compound, the half-life ([5]; male, human, in vivo) was 9 to 15 h, the half-life ([6]; human, in vivo, oral, regardless of the doses administrated, healthy adults) was 9 to 15 h and the Tmax ([6]; human, in vivo, after oral administration, healthy adults) was 1 to 2 h. For the same compound, the “abnormal responses to the test substance” value ([6]; phase 1 clinical trial) was “no serious abnormal responses”, the accumulation of drug ([6]; repeated administration once a day for 7 days) was “not observed” and the “inhibitive activity for PDE-5” value [7] was “strong inhibitive activity”. For the same compound, the “selectivity for PDE-5” value [7] was “excellent selectivity”, the “inhibition of the activity of PDE-11” value [8] was “does not have an inhibiting power” and the “residual rate after liver metabolism” value [9] was 93.0%. For the same compound, the “Interrupt rate (%)” value ([2]; 100 mg) was 0.0% and the “Interrupt rate (%)” value ([2]; 200 mg) was 1.2%.

In the case of `CCCc1nc(C)c2c(=O)[nH]c(-c3cc(S(=O)(=O)N4CCN(CC)CC4)ccc3OCC)nn12` [Levitra], the “Interrupt rate (%)” value ([2]; 5 mg) is reported as 2.7%, the “Interrupt rate (%)” value ([2]; 10 mg) is reported as 2.9% and the “Interrupt rate (%)” value ([2]; 20 mg) is reported as 6.6%.

`CCCc1nn(C)c2c(=O)[nH]c(-c3cc(S(=O)(=O)N4CCN(C)CC4)ccc3OCC)nc12` [Sildenafil] gave a half-life ([5]; 50 mg, BPH patients, plasma) of 4.1 ± 1.1 time, a half-life ([5]; male, human, plasma, oral, summary of Table 3, read-out: half-life) of 3 to 5 h and a concentration at 30 min [10] of 319 ng/mL. The concentration at 120 min [10] was 633 ng/mL, the concentration at 360 min [10] was 259 ng/mL and the “Interrupt rate (%)” value ([2]; 25 mg) was 0.0%. The “Interrupt rate (%)” value ([2]; 50 mg) was 0.7% and the “Interrupt rate (%)” value ([2]; 100 mg) was 3.9%.
